System: human monocyte-derived macrophages (hMDMs)
Assay: Example 2E: CSF1R inhibition by PLX5622, confluence and morphology (Incucyte)
Format: cell-based
Conditions: PLX5622 1 μM relative to vehicle alone
Protocol: PBMCs were isolated from fresh, whole blood from human donors. CD14+ monocytes were isolated using positive magnetic selection (Miltenyi). Cells were plated in UpCell® low-adhesion plates and incubated in culture media with 50 ng/mL CSF1 for 48 hours. After 48 hours, cells were non-enzymatically harvested and plated at 25,000 cells per well in cell culture plates coated with 10 μg/mL of either Ab-3 or a matching isotype control. PLX5622 was immediately added to the cultures to 1 μM, and plates were incubated in a humidified incubator at 37 C, 5% CO2 for an additional 96 hours. During incubation, cells were monitored every two hours using an Incucyte S3® analyzer (2 fields of view per well, imaged at 10×). Confluence was measured using built in S3 software, while area and eccentricity (cell shape) were measured using the built in “Cell By Cell” analysis software. Significance was determined by Student's T-test, two-tailed in Graphpad Prism.

COc1ncc(F)cc1CNc1ccc(Cc2c[nH]c3ncc(C)cc23)c(F)n1 [PLX5622, reference compound]
confluence (FIG. 5): significant reduction in confluence
cells with “high area, high eccentricity” (ramified) (FIG. 6): significant reduction in cells with “high area, high eccentricity”

Source: patent publication US20250326839A1, “TREATMENT OF DISEASES RELATED TO COLONY-STIMULATING FACTOR 1 RECEPTOR DYSFUNCTION USING TREM2 AGONISTS” (Vigil Neuroscience, Inc., priority 2020, published 2025)
